From patent US7534859B2, “Protein kinase C epsilon as modulator of anxiety, alcohol consumption and self-administration of drugs of abuse” (The Regents of the University of California, priority 1998, dated 2009)
Where two headings read alike, the source gives them in different places.

Experiments:
PKCε−/− and PKCε+/+ mice [1] = test: locomotor activity in activity chambers after intraperitoneal injection; type: in vivo, mouse; conditions: for locomotor response (distance traveled), PKCε−/− compared to PKCε+/+: i.p.: diazepam 0.5, 1.5, 4.0 mg/kg, muscimol 0.1, 0.2, 0.4 mg/kg, MK-801 0.01, 0.02, 0.03 mg/kg
GABAA receptor = test: 36Cl− uptake in cortical microsacs from PKCε−/− and PKCε+/+ mice (GABAA receptor function); type: biochemical, mouse; conditions: for activation of GABAA receptors (muscimol-stimulated Cl− uptake): 10^−12M to 10^−9M, 1 μM muscimol
PKCε−/− and PKCε+/+ mice [2] = test: loss of righting reflex (LORR) after intraperitoneal injection; type: in vivo, mouse; conditions: for LORR duration / sensitivity to sedative effects, PKCε−/− compared to wild-type: Example 3, earlier experiment, sedative doses of pentobarbital
PKCε−/− and PKCε+/+ mice [3] = conditions: 2.0 g/kg i.p.
Protocol: Probes were perfused with artificial cerebrospinal fluid (aCSF), and animals were allowed to recover overnight. Mice were placed in open field chambers equipped with photobeams, and dialysis sample tubes were changed at 10 min intervals.

PKCε−/− and PKCε+/+ mice [4] = conditions: 2-14% ethanol vs water, two-bottle choice
PKCε−/− and PKCε+/+ mice [5] = conditions: two weeks liquid diet containing 5% ethanol; 2, 4, 6, 7 hours after removal
Protocol: Withdrawal seizures known as handling-induced convulsions (HIC) can be induced in mice by handling them after chronic exposure to ethanol. […] Withdrawal seizures were evaluated in 4 PKCε^+/+ and 4 PKCε^−/− mice following two weeks exposure to a fully nutritious liquid diet containing 5% ethanol (Dyets, Bethlehem, Pa.) as the only source of food or fluid. Seizures were videotaped at 2, 4, 6, and 7 hours following removal of ethanol from the cage and rated by observers who were blind to the genotype and drug exposure. Data were averaged across time-points and mice.

PKCε = test: muscimol/flunitrazepam-stimulated 36Cl− uptake in saponin-permeabilized microsacs treated with PKCε inhibitor peptide; type: biochemical, mouse; conditions: for effect of peptide on the enhancing effect of flunitrazepam on muscimol-stimulated Cl− uptake: wild-type microsacs, 100 μM peptide, 1 μM muscimol and 0.1 μM flunitrazepam, 5 seconds
Protocol: GABAA receptor function was tested directly in wild-type and mutant mice. […] Following a five minute incubation in a shaking water bath at 34° C., chloride uptake in 200 μl membrane aliquots was initiated by the addition and immediate vortexing of 200 μl of a solution containing […] (0.2 μCi/ml of assay buffer). Drugs (muscimol, flunitrazepam, or ethanol) were added only in the ^36Cl^− solution. […] Hg) onto a 2.5 cm Whatman GF/C glass microfiber filter, using a Hoefer manifold (Hoefer Scientific, San Francisco, Calif.). The filters were washed with an additional 12 ml of cold assay buffer. Filters were submerged in Filtron-X (National Diagnostics) and the amount of radioactivity on the filters was determined by liquid scintillation spectrometry. Muscimol-dependent uptake was defined as the total amount of ^36Cl^− taken up while muscimol was present in the medium minus the amount of ^36Cl^− taken up when muscimol was not present.
Microsacs were then centrifuged again at 900× g for 15 min at 4° C. and re-suspended in assay buffer with protease inhibitors at 5 mg/ml immediately prior to assaying ^36Cl^− uptake.

[6] = ethanol 3.2, 3.6, 4.0 g/kg i.p.

`C[C@]12N[C@H](Cc3ccccc31)c1ccccc12` [MK-801] was tested, and the “locomotor response (distance traveled), PKCε−/− compared to PKCε+/+” value (from here on “locomotor response … compared to PKCε+/+”) (PKCε−/− and PKCε+/+ mice [1]) was “No differences”.

With `CC(=O)[C@H]1CC[C@H]2[C@@H]3CC[C@H]4C[C@H](O)CC[C@]4(C)[C@H]3CC[C@]12C` [allopregnanolone, 3alpha-hydroxy-5alpha-pregnan-20-one] the “activation of GABAA receptors (muscimol-stimulated Cl− uptake)” value (GABAA receptor; microsacs from PKCε+/+ mice) was “comparatively little effect” and the “activation of GABAA receptors (muscimol-stimulated Cl− uptake)” value (GABAA receptor; microsacs from PKCε−/− mice) was “substantially activate”.

For `CN1C(=O)CN=C(c2ccccc2)c2cc(Cl)ccc21` [diazepam], the “locomotor response … compared to PKCε+/+” value (PKCε−/− and PKCε+/+ mice [1]) was “significant increase in distance traveled” and the “sensitivity to sedative effects (LORR), PKCε−/− compared to PKCε+/+” value (PKCε−/− and PKCε+/+ mice [2]; diazepam 20, 30, 40 mg/kg i.p., Example 6) was 30 fold.

`CCO` [ethanol] was tested, and the “increase in locomotor activity, PKCε−/− compared to PKCε+/+” value (PKCε−/− and PKCε+/+ mice [1]; male mice, 2 g/kg ethanol i.p., 15-minute period) was “two-fold greater increase”, the “extracellular dopamine levels in nucleus accumbens after administration” value (PKCε−/− and PKCε+/+ mice [3]; PKCε+/+ mice) was “transient increase in dopamine levels” and the “extracellular dopamine levels in nucleus accumbens after administration” value (PKCε−/− and PKCε+/+ mice [3]; PKCε−/− mice) was “No change in dopamine levels”. The “reduction in ethanol preference, PKCε−/− compared to PKCε+/+” value (PKCε−/− and PKCε+/+ mice [4]) was 75%, the “enhancement of muscimol-stimulated Cl− uptake, PKCε−/− microsacs compared to wild-type” value (GABAA receptor; 1 μM muscimol with 20 mM ethanol or 0.1 μM flunitrazepam) was “two-fold greater” and the “LORR duration / sensitivity to sedative effects, PKCε−/− compared to wild-type” value (PKCε−/− and PKCε+/+ mice [2]; [6]) was “significantly higher LORR duration”. The “time required to regain righting reflex (LORR duration), PKCε−/− compared to PKCε+/+” value (PKCε−/− and PKCε+/+ mice [2]; ethanol 3.2, 3.6, 4.0 g/kg i.p., Example 5) was “two-fold increase” and the “reduction in withdrawal seizure severity (HIC score) compared to wildtype littermates” value (PKCε−/− and PKCε+/+ mice [5]) was 50%.

With `NCc1cc(=O)[nH]o1` [muscimol] the “locomotor response … compared to PKCε+/+” value (PKCε−/− and PKCε+/+ mice [1]) was “indistinguishable” and the “Cl− uptake stimulated by direct agonist, knockout compared to wild-type” value (GABAA receptor; 0-20 μM muscimol, 5 seconds) was “similar”.

`CCCC(C)C1(CC)C(=O)NC(=O)NC1=O` (centres unmarked) [pentobarbital] was tested, and the “LORR duration / sensitivity to sedative effects, PKCε−/− compared to wild-type” value (PKCε−/− and PKCε+/+ mice [2]; [6]) was “two-fold greater sensitivity” and the “sensitivity to sedative effects (LORR), PKCε−/− compared to control mice” value (PKCε−/− and PKCε+/+ mice [2]; pentobarbital 30, 40, 50 mg/kg i.p., Example 6) was “three-fold greater sensitivity”.

In the case of “S-εV1-2: scrambled version of the εV1-2 peptide, LSETKPAV”, the “effect of peptide on the enhancing effect of flunitrazepam on muscimol-stimulated Cl− uptake” value (PKCε) is reported as “no effect”.

With “εV1-2: selective inhibitor of PKCε, peptide EAVSLKPT” the “effect of peptide on muscimol and flunitrazepam-stimulated 36Cl− uptake” value (PKCε; microsacs from PKCε−/− mice) was “did not affect” and the “effect of peptide on the enhancing effect of flunitrazepam on muscimol-stimulated Cl− uptake” value (PKCε) was “markedly increased”.
